According to publication PMC10791687, “The Piezo channel is a mechano-sensitive complex component in the mammalian inner ear hair cell” (Nature Communications, 2024):

Target: T1, mPz1 (mouse Piezo1) (Mus musculus, UniProt E2JF22)
T1 construct: full-length, mPz1-IRES-GFP plasmid (clone from A. Patapoutian) in mouse Neuro2A cells; also purified/enriched mPz1 in planar lipid bilayer; homotrimer
Experiment: single-channel recording in planar lipid bilayer
Type: biochemical
Details: purified mPz1, 500 mM KCl, 10 mM MOPS, pH 7.4

T1 sequence (E2JF22 whole entry): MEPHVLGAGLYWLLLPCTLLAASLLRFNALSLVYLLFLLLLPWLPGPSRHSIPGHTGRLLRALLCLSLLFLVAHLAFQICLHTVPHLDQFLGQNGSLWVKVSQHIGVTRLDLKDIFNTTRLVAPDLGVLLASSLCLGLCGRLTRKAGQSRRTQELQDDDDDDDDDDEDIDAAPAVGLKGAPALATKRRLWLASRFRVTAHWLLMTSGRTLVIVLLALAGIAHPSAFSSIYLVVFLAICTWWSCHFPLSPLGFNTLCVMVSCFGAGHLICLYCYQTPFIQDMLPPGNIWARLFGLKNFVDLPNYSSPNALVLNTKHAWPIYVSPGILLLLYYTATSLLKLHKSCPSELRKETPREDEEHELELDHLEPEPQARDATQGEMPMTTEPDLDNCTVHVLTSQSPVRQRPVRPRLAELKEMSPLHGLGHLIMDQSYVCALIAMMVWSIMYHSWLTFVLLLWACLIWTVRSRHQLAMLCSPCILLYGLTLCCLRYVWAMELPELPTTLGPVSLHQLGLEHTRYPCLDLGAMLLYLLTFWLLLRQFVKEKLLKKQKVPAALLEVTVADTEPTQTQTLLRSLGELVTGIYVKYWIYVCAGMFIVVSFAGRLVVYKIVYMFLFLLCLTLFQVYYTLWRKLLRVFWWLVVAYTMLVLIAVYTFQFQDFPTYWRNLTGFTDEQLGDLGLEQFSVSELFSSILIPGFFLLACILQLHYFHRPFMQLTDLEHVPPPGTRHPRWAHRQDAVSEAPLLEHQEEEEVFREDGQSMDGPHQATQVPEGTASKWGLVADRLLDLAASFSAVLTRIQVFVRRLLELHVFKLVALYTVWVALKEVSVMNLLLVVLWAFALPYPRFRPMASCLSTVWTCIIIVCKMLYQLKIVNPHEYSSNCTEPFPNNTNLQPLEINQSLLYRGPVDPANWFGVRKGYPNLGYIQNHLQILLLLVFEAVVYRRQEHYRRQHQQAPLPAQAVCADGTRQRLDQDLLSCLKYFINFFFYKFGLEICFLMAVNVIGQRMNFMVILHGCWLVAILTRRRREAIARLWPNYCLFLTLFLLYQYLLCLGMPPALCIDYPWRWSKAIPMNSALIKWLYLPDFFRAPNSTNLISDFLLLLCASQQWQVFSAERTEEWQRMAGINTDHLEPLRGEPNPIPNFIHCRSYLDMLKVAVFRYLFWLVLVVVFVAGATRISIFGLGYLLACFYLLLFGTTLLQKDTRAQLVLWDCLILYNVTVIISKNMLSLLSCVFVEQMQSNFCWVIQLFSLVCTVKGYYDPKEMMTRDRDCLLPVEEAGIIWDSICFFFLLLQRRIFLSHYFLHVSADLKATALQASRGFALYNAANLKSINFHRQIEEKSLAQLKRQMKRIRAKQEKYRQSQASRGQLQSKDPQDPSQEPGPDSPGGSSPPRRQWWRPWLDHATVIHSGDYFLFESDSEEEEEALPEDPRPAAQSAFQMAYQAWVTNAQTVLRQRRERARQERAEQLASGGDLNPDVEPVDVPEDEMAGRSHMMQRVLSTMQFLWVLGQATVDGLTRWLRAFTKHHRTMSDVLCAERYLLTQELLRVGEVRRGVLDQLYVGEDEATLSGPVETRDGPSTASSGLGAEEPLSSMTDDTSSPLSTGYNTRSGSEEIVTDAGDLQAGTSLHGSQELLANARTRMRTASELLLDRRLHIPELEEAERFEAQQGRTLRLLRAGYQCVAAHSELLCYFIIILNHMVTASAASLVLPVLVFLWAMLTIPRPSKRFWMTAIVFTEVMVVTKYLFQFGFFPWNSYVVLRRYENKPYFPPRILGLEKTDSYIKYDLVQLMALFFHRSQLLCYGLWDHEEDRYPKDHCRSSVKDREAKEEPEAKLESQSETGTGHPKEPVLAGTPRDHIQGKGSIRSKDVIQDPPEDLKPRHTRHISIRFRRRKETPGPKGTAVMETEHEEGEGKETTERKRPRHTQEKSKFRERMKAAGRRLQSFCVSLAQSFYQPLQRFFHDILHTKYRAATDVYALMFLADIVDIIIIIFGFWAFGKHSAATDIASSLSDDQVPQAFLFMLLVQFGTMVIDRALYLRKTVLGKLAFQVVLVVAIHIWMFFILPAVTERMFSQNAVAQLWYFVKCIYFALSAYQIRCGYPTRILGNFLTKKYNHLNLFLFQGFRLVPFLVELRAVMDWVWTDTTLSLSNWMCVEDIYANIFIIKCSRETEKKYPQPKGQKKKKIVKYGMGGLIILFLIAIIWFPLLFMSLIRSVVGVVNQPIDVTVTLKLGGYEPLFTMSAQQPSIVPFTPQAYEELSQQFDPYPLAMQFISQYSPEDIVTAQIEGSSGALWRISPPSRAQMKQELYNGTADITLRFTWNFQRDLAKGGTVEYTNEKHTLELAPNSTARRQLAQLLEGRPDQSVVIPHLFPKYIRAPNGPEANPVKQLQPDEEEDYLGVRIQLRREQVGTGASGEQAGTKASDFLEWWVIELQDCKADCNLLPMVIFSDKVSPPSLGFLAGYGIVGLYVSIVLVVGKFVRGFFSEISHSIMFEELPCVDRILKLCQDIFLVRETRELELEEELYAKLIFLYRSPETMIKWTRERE

CN[C@@H]1[C@H](O[C@H]2[C@H](O[C@H]3[C@H](O)[C@@H](O)[C@H](N=C(N)N)[C@@H](O)[C@@H]3N=C(N)N)O[C@@H](C)[C@]2(O)CO)O[C@@H](CO)[C@H](O)[C@H]1O [dihydrostreptomycin]
single-channel recording in planar lipid bilayer: DHS, GsMTx4, and ruthenium blocked the mPz1-channel activity in lipid bilayers
